Tests used:
Format in all cases: in vivo, human
[1] = Phase 2a study, safety and tolerability in gout patients; conditions: 50 mg once daily
From the text: Urine samples were collected for assessment of uric acid excretion. Laboratory safety tests, vital signs, and electrocardiograms were collected throughout the study.

[2] = system: serum uric acid (sUA); test: Phase 1 multiple ascending dose study, pharmacodynamics (serum uric acid) in healthy adult males; conditions: for reduction of sUA concentration at trough / reduction of sUA concentration, maximum: fasted, Day 10
From the text: An additional 6 subjects received placebo.
Steady-state sUA lowering effect was achieved after approximately 5 days.

[3] = system: serum uric acid (sUA); test: Phase 1 single dose study, pharmacodynamics (serum uric acid) in healthy adult males; conditions: fasted
Protocol: The dose groups included Cohort 1 (15 mg or placebo, fasted, oral suspension), Cohort 2 (50 mg or placebo, fasted, suspension), Cohort 3 (100 mg or placebo, fasted, oral suspension), Cohort 4 (150 mg or placebo, fasted, oral suspension), Cohort 6 (50 mg or placebo, fed, oral suspension), and Cohort 7 (50 mg or placebo, fasted, oral capsule). […] An additional 8 subjects received placebo.
Decrease in sUA appeared to reach a plateau at 100 mg or lower.

[4] = 50 mg single oral, Capsule, 6 h
[5] = 50 mg single oral, Capsule, 12 h
[6] = 50 mg single oral, Capsule, 24 h
[7] = 50 mg single oral, Capsule, 30 h
[8] = 50 mg single oral, Capsule, 36 h
[9] = 50 mg single oral, Capsule, 48 h
[10] = 50 mg single oral, Capsule, 54 h
[11] = 50 mg single oral, Capsule, 60 h
[12] = 50 mg single oral, Capsule, 72 h
[13] = 50 mg single oral, Capsule, 96 h
[14] = 50 mg single oral, Capsule, 120 h

[2H]c1c([2H])c([2H])c2c(C(=O)c3cc(Br)c(O)c(Br)c3)c(C(C)O)oc2c1[2H] (racemic) [Compound 1, (3,5-dibromo-4-hydroxyphenyl)(2-(1-hydroxyethyl)benzofuran-3-yl-4,5,6,7-d4)methanone]
laboratory or ECG abnormalities [1]: no clinically significant laboratory or ECG abnormalities
tolerability [1]: well tolerated
reduction of sUA concentration at trough ([2]; 25 mg oral capsules once daily): 41%
reduction of sUA concentration, maximum ([2]; 25 mg oral capsules once daily): up to 44%
reduction of sUA concentration at trough ([2]; 50 mg oral capsules once daily): 58%
reduction of sUA concentration, maximum ([2]; 50 mg oral capsules once daily): up to 67%
reduction of sUA concentration at trough ([2]; 75 mg oral capsules once daily): 65%
reduction of sUA concentration, maximum ([2]; 75 mg oral capsules once daily): up to 69%
time to steady-state sUA lowering effect ([2]; once-daily 25, 50 or 75 mg): approximately 5 days
Percent change in serum uric acid, mean, time-matched (Day-1) baseline ([3]; 15 mg single oral, 6 h): 2.7%
Serum uric acid, mean ([3]; 15 mg single oral, 6 h): 5.4 mg/dL
Percent change in serum uric acid, mean, time-matched (Day-1) baseline ([3]; 15 mg single oral, 12 h): 8.7%
Serum uric acid, mean ([3]; 15 mg single oral, 12 h): 5.1 mg/dL
Serum uric acid, mean ([3]; 15 mg single oral, 24 h): 5.1 mg/dL
Percent change in serum uric acid, mean, time-matched (Day-1) baseline ([3]; 15 mg single oral, 30 h): 0.7%
Serum uric acid, mean ([3]; 15 mg single oral, 30 h): 5.2 mg/dL
Percent change in serum uric acid, mean, time-matched (Day-1) baseline ([3]; 15 mg single oral, 36 h): −1.4%
Serum uric acid, mean ([3]; 15 mg single oral, 36 h): 4.6 mg/dL
Percent change in serum uric acid, mean, time-matched (Day-1) baseline ([3]; 15 mg single oral, 48 h): −4.4%
Serum uric acid, mean ([3]; 15 mg single oral, 48 h): 5.2 mg/dL
Percent change in serum uric acid, mean, time-matched (Day-1) baseline ([3]; 15 mg single oral, 54 h): −1.5%
Serum uric acid, mean ([3]; 15 mg single oral, 54 h): 5.1 mg/dL
Percent change in serum uric acid, mean, time-matched (Day-1) baseline ([3]; 15 mg single oral, 60 h): 10.0%
Serum uric acid, mean ([3]; 15 mg single oral, 60 h): 5.2 mg/dL
Percent change in serum uric acid, mean, time-matched (Day-1) baseline ([3]; 15 mg single oral, 72 h): 3.6%
Serum uric acid, mean ([3]; 15 mg single oral, 72 h): 5.6 mg/dL
Percent change in serum uric acid, mean, time-matched (Day-1) baseline ([3]; 15 mg single oral, 96 h): 7.8%
Serum uric acid, mean ([3]; 15 mg single oral, 96 h): 5.8 mg/dL
Percent change in serum uric acid, mean, time-matched (Day-1) baseline ([3]; 15 mg single oral, 120 h): 13.0%
Serum uric acid, mean ([3]; 15 mg single oral, 120 h): 6.1 mg/dL
Percent change in serum uric acid, mean, time-matched (Day-1) baseline [3, 4]: −26.9%
Serum uric acid, mean [3, 4]: 4.0 mg/dL
Percent change in serum uric acid, mean, time-matched (Day-1) baseline [3, 5]: −37.5%
Serum uric acid, mean [3, 5]: 3.4 mg/dL
Percent change in serum uric acid, mean, time-matched (Day-1) baseline [3, 6]: −38.3%
Serum uric acid, mean [3, 6]: 3.7 mg/dL
Percent change in serum uric acid, mean, time-matched (Day-1) baseline [3, 7]: −36.9%
Serum uric acid, mean [3, 7]: 3.4 mg/dL
Percent change in serum uric acid, mean, time-matched (Day-1) baseline [3, 8]: −34.1%
Serum uric acid, mean [3, 8]: 3.6 mg/dL
Percent change in serum uric acid, mean, time-matched (Day-1) baseline [3, 9]: −32.4%
Serum uric acid, mean [3, 9]: 4.1 mg/dL
Percent change in serum uric acid, mean, time-matched (Day-1) baseline [3, 10]: −28.1%
Serum uric acid, mean [3, 10]: 3.9 mg/dL
Percent change in serum uric acid, mean, time-matched (Day-1) baseline [3, 11]: −21.0%
Serum uric acid, mean [3, 11]: 4.3 mg/dL
Percent change in serum uric acid, mean, time-matched (Day-1) baseline [3, 12]: −17.8%
Serum uric acid, mean [3, 12]: 4.9 mg/dL
Percent change in serum uric acid, mean, time-matched (Day-1) baseline [3, 13]: −11.2%
Serum uric acid, mean [3, 13]: 5.3 mg/dL
Percent change in serum uric acid, mean, time-matched (Day-1) baseline [3, 14]: −12.5%
Serum uric acid, mean [3, 14]: 5.2 mg/dL
Percent change in serum uric acid, mean, time-matched (Day-1) baseline ([3]; 50 mg single oral, 6 h): −23.8%
Serum uric acid, mean ([3]; 50 mg single oral, 6 h): 4.6 mg/dL
Percent change in serum uric acid, mean, time-matched (Day-1) baseline ([3]; 50 mg single oral, 12 h): −33.6%
Serum uric acid, mean ([3]; 50 mg single oral, 12 h): 3.9 mg/dL
Percent change in serum uric acid, mean, time-matched (Day-1) baseline ([3]; 50 mg single oral, 24 h): −42.4%
Serum uric acid, mean ([3]; 50 mg single oral, 24 h): 3.9 mg/dL
Percent change in serum uric acid, mean, time-matched (Day-1) baseline ([3]; 50 mg single oral, 30 h): −33.5%
Serum uric acid, mean ([3]; 50 mg single oral, 30 h): 4.1 mg/dL
Percent change in serum uric acid, mean, time-matched (Day-1) baseline ([3]; 50 mg single oral, 36 h): −33.9%
Serum uric acid, mean ([3]; 50 mg single oral, 36 h): 3.9 mg/dL
Percent change in serum uric acid, mean, time-matched (Day-1) baseline ([3]; 50 mg single oral, 48 h): −35.8%
Serum uric acid, mean ([3]; 50 mg single oral, 48 h): 4.3 mg/dL
Percent change in serum uric acid, mean, time-matched (Day-1) baseline ([3]; 50 mg single oral, 54 h): −32.1%
Serum uric acid, mean ([3]; 50 mg single oral, 54 h): 4.2 mg/dL
Percent change in serum uric acid, mean, time-matched (Day-1) baseline ([3]; 50 mg single oral, 60 h): −24.2%
Serum uric acid, mean ([3]; 50 mg single oral, 60 h): 4.5 mg/dL
Percent change in serum uric acid, mean, time-matched (Day-1) baseline ([3]; 50 mg single oral, 72 h): −26.1%
Serum uric acid, mean ([3]; 50 mg single oral, 72 h): 5.0 mg/dL
Percent change in serum uric acid, mean, time-matched (Day-1) baseline ([3]; 50 mg single oral, 96 h): −9.6%
Serum uric acid, mean ([3]; 50 mg single oral, 96 h): 6.0 mg/dL
Percent change in serum uric acid, mean, time-matched (Day-1) baseline ([3]; 50 mg single oral, 120 h): −4.6%
Serum uric acid, mean ([3]; 50 mg single oral, 120 h): 6.4 mg/dL
